Test results taken from patent EP4656640A1, “IRAK4 DEGRADER AND USE THEREOF” (Shanghai Qilu Pharmaceutical Research and Development …, priority 2023, dated 2024).
Where two headings read alike, the source gives them in different places.

Columns and labels:
IRAK4 [1] = target: T1, IRAK4 (Homo sapiens, UniProt Q9NWZ3); assay: Degradation of IRAK4 in SU-DHL-2 cells (flow cytometry); type: cell-based; set-up: The degradation level of IRAK4 protein in SU-DHL-2 cell line by the compounds was detected by flow cytometry; endogenous in cells; host or cells: SU-DHL-2; OCI-LY3
T1 sequence (Q9NWZ3 1-460): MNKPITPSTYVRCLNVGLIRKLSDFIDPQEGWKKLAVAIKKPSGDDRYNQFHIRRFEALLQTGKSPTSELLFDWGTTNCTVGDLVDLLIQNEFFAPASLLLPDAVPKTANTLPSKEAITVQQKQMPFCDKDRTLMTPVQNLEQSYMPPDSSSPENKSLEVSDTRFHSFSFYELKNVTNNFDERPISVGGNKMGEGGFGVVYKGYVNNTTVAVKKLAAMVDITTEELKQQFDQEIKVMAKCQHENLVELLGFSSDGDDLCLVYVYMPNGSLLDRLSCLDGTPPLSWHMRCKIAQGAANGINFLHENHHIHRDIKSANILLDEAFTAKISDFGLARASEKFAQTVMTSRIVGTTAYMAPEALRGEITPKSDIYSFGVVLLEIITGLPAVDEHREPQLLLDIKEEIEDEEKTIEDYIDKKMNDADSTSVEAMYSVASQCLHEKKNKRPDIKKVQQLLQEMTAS
Protocol: The degradation level of IRAK4 protein in SU-DHL-2 cell line by the compounds was detected by flow cytometry.
Step 2: On day 1, the cells were seeded at a density of 2 × 10^5 cells per well in 100 µL in a 96-well plate. The compounds were dissolved in DMSO to a final concentration of 10 mM, and then diluted with culture medium at a 1:5 concentration gradient to prepare 10 concentrations. The diluted solutions were added to the cells to obtain a maximum final concentration of 2 µM. Wells containing cells treated with 0.1% DMSO served as the […] The cells were incubated at 37°C in a 5% CO2 incubator for 24 hours.
Step 3: After centrifugation, the cells were washed with FACS buffer. The cells were stained for viability discrimination using the LIVE/DEAD™ Fixable Blue Dead Cell Stain Kit, and surface staining of monocytes was performed with PE Mouse Anti-Human CD14, followed by incubation at 4°C for 30 minutes.
Step 4: After centrifugation, the cells were washed with FACS buffer. Fix buffer I, equal in volume to the cultured cells, was added, and the cells were fixed at 37°C for 10 minutes.
Step 5: After centrifugation, the cells were washed with FACS buffer. 150 µL of Perm III reagent was added, and the cells were incubated at 4°C for 30 minutes to permeabilize the membranes. After centrifugation, the cells were washed with FACS buffer.
Flow cytometry analysis was performed using a flow cytometer.
The flow cytometry data were analyzed using Flowjo software. Data presentation and DC50 (half-maximal degradation concentration) calculation were performed using Prism 8.0.2 (GraphPad).

IRAK4 [2] = target: T1, IRAK4; type: cell-based; set-up: endogenous in cells; host or cells: OCI-LY3; conditions: read-out: OCI-LY3 DC50
[3] = read-out: SU-DHL-2 DC50; SU-DHL-2 cells, 24 hours incubation
[4] = SU-DHL-2 cells, 24 hours incubation; read-out: SU-DHL-2 DC50

SMILES | DC50 (IRAK4 [1]; read-out: SU-DHL-2 DC50) [nM] | other results
Cn1c(=O)n(C2CCC(=O)NC2=O)c2cccc(C#CCOc3ccc(CN4CCC5(CC4)CC(n4cc(NC(=O)c6cnn7ccc(N8C[C@H]9C[C@@H]8CO9)nc67)c(C(F)F)n4)C5)cc3)c21 (some centres unmarked) [Example 57] | 22 | –
Cn1c(=O)n(C2CCC(=O)NC2=O)c2cccc(C#CCOC3CC(N4CCC5(CCC(n6cc(NC(=O)c7cnn8ccc(N9C[C@H]%10C[C@@H]9CO%10)nc78)c(C(F)F)n6)CC5)CC4)C3)c21 (some centres unmarked) [Example 38] | 68 | –
COc1cc2nn(C3CCC4(CC3)CCN(CC3CCN(c5ccc6c(c5)C(=O)N(C5CCC(=O)NC5=O)C6=O)CC3)CC4)cc2cc1C(=O)Nc1cnc2cccnn12 (centres unmarked) [Example 47] | 0.5 | –
Cn1c(=O)n(C2CCC(=O)NC2=O)c2cccc(C#CC(C)(C)N3CC[C@@H](C(=O)N4CCC5(CC4)CC(n4cc(NC(=O)c6cnn7ccc(N8C[C@H]9C[C@@H]8CO9)nc67)c(C(F)F)n4)C5)C3)c21 (some centres unmarked) [Example 54] | 17 | –
Cn1c(=O)n(C2CCC(=O)NC2=O)c2cccc(C#CCO[C@H]3C[C@H](CN4CCC5(CC4)CC(n4cc(NC(=O)c6cnn7ccc(N8C[C@H]9C[C@@H]8CO9)nc67)c(C(F)F)n4)C5)C3)c21 (some centres unmarked) [Example 29] | – | DC50 (IRAK4 [1]; [3]): 3 nM; DC50 (IRAK4 [2]; OCI-LY3 cells): 1 nM
Cn1c(=O)n(C2CCC(=O)NC2=O)c2cccc(C#CCN3CCC(CN4CCC5(CC4)CC(n4cc(NC(=O)c6cnn7ccc(N8C[C@H]9C[C@@H]8CO9)nc67)c(C(F)F)n4)C5)CC3)c21 (some centres unmarked) [Example 3] | 11 | DC50 (IRAK4 [2]): 8 nM
Cn1c(=O)n(C2CCC(=O)NC2=O)c2cccc(C#CCO[C@H]3CC[C@H](C(=O)N4CCC5(CC4)CC(n4cc(NC(=O)c6cnn7ccc(N8C[C@H]9C[C@@H]8CO9)nc67)c(C(F)F)n4)C5)CC3)c21 (some centres unmarked) [Example 71] | 5 | –
Cn1c(=O)n(C2CCC(=O)NC2=O)c2cccc(C#CC(C)(C)C(=O)N3CCC4(CC3)CC(n3cc(NC(=O)c5cnn6ccc(N7C[C@H]8C[C@@H]7CO8)nc56)c(C(F)F)n3)C4)c21 (some centres unmarked) [Example 70] | 16 | –
COc1cc2nn(C3CCC4(CC3)CCN(C3CC(OCC#Cc5cccc6c5n(C)c(=O)n6C5CCC(=O)NC5=O)C3)CC4)cc2cc1C(=O)Nc1cnc2cccnn12 (centres unmarked) [Example 64] | 1 | –
Cn1c(=O)n(C2CCC(=O)NC2=O)c2cccc(C#CCO[C@H]3CC[C@@H](C(=O)N4CCC5(CC4)CC(n4cc(NC(=O)c6cnn7ccc(N8C[C@H]9C[C@@H]8CO9)nc67)c(C(F)F)n4)C5)CC3)c21 (some centres unmarked) [Example 72] | 4 | –
COc1cc2nn(C3CC4(CCN(CC5CC(OCC#Cc6cccc7c6n(C)c(=O)n7C6CCC(=O)NC6=O)C5)CC4)C3)cc2cc1C(=O)Nc1cnc2cccnn12 (centres unmarked) [Example 65] | 2.8 | –
Cn1c(=O)n(C2CCC(=O)NC2=O)c2cccc(C#CCOC[C@H]3C[C@H]3CN3CCC4(CC3)CC(n3cc(NC(=O)c5cnn6ccc(N7C[C@H]8C[C@@H]7CO8)nc56)c(C(F)F)n3)C4)c21 (relative stereo) [Example 44] | – | DC50 (IRAK4 [1]; [4]): 5.4 nM
Cn1c(=O)n(C2CCC(=O)NC2=O)c2cccc(C#CCC3CCC(N4CCC5(CC4)CC(n4cc(NC(=O)c6cnn7ccc(N8C[C@H]9C[C@@H]8CO9)nc67)c(C(F)F)n4)C5)CC3)c21 (some centres unmarked) [Example 35] | 5 | –
Cn1c(=O)n(C2CCC(=O)NC2=O)c2cccc(C#CC(C)(C)N3CC(C(=O)N4CCC5(CC4)CC(n4cc(NC(=O)c6cnn7ccc(N8C[C@H]9C[C@@H]8CO9)nc67)c(C(F)F)n4)C5)C3)c21 (some centres unmarked) [Example 50] | 4 | –
Cn1c(=O)n(C2CCC(=O)NC2=O)c2cccc(C#CCN3CC[C@H](C(=O)N4CCC5(CC4)CC(n4cc(NC(=O)c6cnn7ccc(N8C[C@H]9C[C@@H]8CO9)nc67)c(C(F)F)n4)C5)C3)c21 (some centres unmarked) [Example 59] | 3 | –
Cn1c(=O)n(C2CCC(=O)NC2=O)c2cccc(C#CCOC3CCN(CC4CCC5(CC4)CCC(n4cc(NC(=O)c6cnn7ccc(N8C[C@H]9C[C@@H]8CO9)nc67)c(C(F)F)n4)CC5)CC3)c21 (some centres unmarked) [Example 68] | 24 | –
Cn1c(=O)n(C2CCC(=O)NC2=O)c2cccc(C#CCOC3CCC(CN4CCC5(CCC(n6cc(NC(=O)c7cnn8ccc(N9C[C@H]%10C[C@@H]9CO%10)nc78)c(C(F)F)n6)CC5)CC4)CC3)c21 (some centres unmarked) [Example 46] | – | DC50 (IRAK4 [1]; [4]): 13 nM

SMILES | DC50 (IRAK4 [1]; read-out: SU-DHL-2 DC50) [nM] | other results
Cn1c(=O)n(C2CCC(=O)NC2=O)c2cccc(C#CCOCC3CC(N4CCC5(CC4)CC(n4cc(NC(=O)c6cnn7ccc(N8C[C@H]9C[C@@H]8CO9)nc67)c(C(F)F)n4)C5)C3)c21 (some centres unmarked) [Example 9] | – | DC50 (IRAK4 [1]; [4]): 2.7 nM; DC50 (IRAK4 [2]; OCI-LY3 cells): 2.3 nM
Cn1c(=O)n(C2CCC(=O)NC2=O)c2cccc(C#CCOCCN3CCC4(CCC(n5cc(NC(=O)c6cnn7ccc(N8C[C@H]9C[C@@H]8CO9)nc67)c(C(F)F)n5)CC4)CC3)c21 (some centres unmarked) [Example 37] | – | DC50 (IRAK4 [1]; [4]): 24 nM
Cn1c(=O)n(C2CCC(=O)NC2=O)c2cccc(C#CCOC3CN(C(=O)N4CCC5(CCC(n6cc(NC(=O)c7cnn8ccc(N9C[C@H]%10C[C@@H]9CO%10)nc78)c(C(F)F)n6)CC5)CC4)C3)c21 (some centres unmarked) [Example 39] | 17 | –
Cn1c(=O)n(C2CCC(=O)NC2=O)c2cccc(C#CCOCC(=O)N3CCC4(CC3)CC(n3cc(NC(=O)c5cnn6ccc(N7C[C@H]8C[C@@H]7CO8)nc56)c(C(F)F)n3)C4)c21 (some centres unmarked) [Example 12] | – | DC50 (IRAK4 [1]; [3]): 5 nM; DC50 (IRAK4 [2]; OCI-LY3 cells): 5 nM
Cn1c(=O)n(C2CCC(=O)NC2=O)c2cccc(C#CCCCCN3CCC4(CC3)CC(n3cc(NC(=O)c5cnn6ccc(N7C[C@H]8C[C@@H]7CO8)nc56)c(C(F)F)n3)C4)c21 (some centres unmarked) [Example 15] | – | DC50 (IRAK4 [1]; [4]): 5 nM; DC50 (IRAK4 [2]; OCI-LY3 cells): 1.5 nM
COc1cc2nn(C3CCC4(CC3)CCN(CC3CCN(c5ccc6c(c5)C(=O)N(C5CCC(=O)NC5=O)C6=O)CC3)CC4)cc2cc1NC(=O)c1cnn2cccnc12 (centres unmarked) [Example 48] | 1 | –
COc1cc2nn(C3CCC4(CC3)CCN(CC3CCN(c5ccc6c(c5)C(=O)N(C5CCC(=O)NC5=O)C6=O)CC3)CC4)cc2cc1NC(=O)c1cnc2cccnn12 (centres unmarked) [Example 67] | 45 | –
Cn1c(=O)n(C2CCC(=O)NC2=O)c2cccc(C#CCOC3CCN(C(=O)N4CCC5(CCC(n6cc(NC(=O)c7cnn8ccc(N9C[C@H]%10C[C@@H]9CO%10)nc78)c(C(F)F)n6)CC5)CC4)CC3)c21 (some centres unmarked) [Example 43] | 61 | –
Cn1c(=O)n(C2CCC(=O)NC2=O)c2cccc(C#CCN3CC(C(=O)N4CCC5(CC4)CC(n4cc(NC(=O)c6cnn7ccc(N8C[C@H]9C[C@@H]8CO9)nc67)c(C(F)F)n4)C5)C3)c21 (some centres unmarked) [Example 58] | 5 | –
Cn1c(=O)n(C2CCC(=O)NC2=O)c2cccc(C#CCOC3CCC(N4CCC5(CC4)CC(n4cc(NC(=O)c6cnn7ccc(N8C[C@H]9C[C@@H]8CO9)nc67)c(C(F)F)n4)C5)CC3)c21 (some centres unmarked) [Example 33] | 6.5 | –
Cn1c(=O)n(C2CCC(=O)NC2=O)c2cccc(C#CCOC34CCC(C(=O)N5CCC6(CC5)CC(n5cc(NC(=O)c7cnn8ccc(N9C[C@H]%10C[C@@H]9CO%10)nc78)c(C(F)F)n5)C6)(CC3)CC4)c21 (some centres unmarked) [Example 51] | 7 | –
Cn1c(=O)n(C2CCC(=O)NC2=O)c2cccc(C#CCOC3CC(CN4CCC5(CCC(n6cc(NC(=O)c7cnn8ccc(N9C[C@H]%10C[C@@H]9CO%10)nc78)c(C(F)F)n6)CC5)CC4)C3)c21 (some centres unmarked) [Example 40] | – | DC50 (IRAK4 [1]; [4]): 33 nM
Cn1c(=O)n(C2CCC(=O)NC2=O)c2cccc(C#CCOC3CCN(CC4CCC5(CC4)CC(n4cc(NC(=O)c6cnn7ccc(N8C[C@H]9C[C@@H]8CO9)nc67)c(C(F)F)n4)C5)CC3)c21 (some centres unmarked) [Example 61] | 4 | –
Cn1c(=O)n(C2CCC(=O)NC2=O)c2cccc(C#CC(C)(C)N3CCC(CN4CCC5(CC4)CC(n4cc(NC(=O)c6cnn7ccc(N8C[C@H]9C[C@@H]8CO9)nc67)c(C(F)F)n4)C5)CC3)c21 (some centres unmarked) [Example 34] | 21 | –
Cn1c(=O)n(C2CCC(=O)NC2=O)c2cccc(C#CC(C)(C)N3CC[C@H](C(=O)N4CCC5(CC4)CC(n4cc(NC(=O)c6cnn7ccc(N8C[C@H]9C[C@@H]8CO9)nc67)c(C(F)F)n4)C5)C3)c21 (some centres unmarked) [Example 55] | 7 | –
Cn1c(=O)n(C2CCC(=O)NC2=O)c2cccc(C#CCN3CCC(CN4CCC5(CC4)CC(n4cc(NC(=O)c6cnn7ccc(N8C[C@H]9C[C@@H]8CO9)nc67)c(C(F)F)n4)C5)CC3=O)c21 (some centres unmarked) [Example 62] | 1.2 | –
